Test: solvent given as SMILES

c1ccc2ccccc2c1
Details	solvation free energy, 298 K [kcal/mol]
in C1CCOC1	-8.21
in C1COCCO1	-7.98
in CC(=O)OCC(C)C	-7.7
in CC(C)(C)O	-6.85
in CC(C)=O	-7.84
in CC(C)CC(C)(C)C	-6.92
in CC(C)CO	-7.09
in CC(C)O	-6.9
in CCC(C)O	-6.88
in CCCCCC	-7.24
in CCCCCCC	-7.22
in CCCCCCCCC=CCCCCCCCC(=O)OCC(COC(=O)CCCCCCCC=CCCCCCCCC)OC(=O)CCCCCCCC=CCCCCCCCC	-7.56
in CCCCCCCCO	-7.08
in CCCCCCO	-7.12
in CCCCCO	-6.89
in CCCCO	-7.09
in CCCO	-7.08
in CCO	-7.08
in CCOC(C)=O	-7.78
in CN1CCCC1=O	-8.08
in CN(C)C=O	-7.95
in CO	-7.01
in Cc1ccc(C)cc1	-7.88
in Cc1cccc(C)c1	-7.86
in Cc1ccccc1C	-7.85
in ClC(Cl)(Cl)Cl	-7.63
in ClCCCl	-8.02
in ClCCl	-8.1
in Clc1ccccc1	-7.87
in O	-2.37
in O=C1CCCCC1	-7.72

CCC(C)CCO (stereo not given)
Details	solvation free energy, 298 K [kcal/mol]
in CCCCCCCC	-4.82
in CCCCCCCCCC	-4.79

CC(O)CC(C)(C)C (stereo not given)
Details	solvation free energy, 298 K [kcal/mol]
in CCCCCCCC	-5.41
in CCCCCCCCCC	-5.33

CC(C)CCOC(=O)c1ccccc1C(=O)OCCC(C)C
Details	solvation free energy, 298 K [kcal/mol]
in O	-6.88

Oc1ccccc1O
Details	solvation free energy, 298 K [kcal/mol]
in CCCCCC	-5.88
in CCCCCCCC	-6.04
in Cc1ccc(C)cc1	-7.95
in Cc1cccc(C)c1	-7.97
in Cc1ccccc1C	-8.02
in O	-9.82

CC(C)CBr
Details	solvation free energy, 298 K [kcal/mol]
in C=CCCCCCCCCCCCCCC	-3.98
in O	-0.03

Oc1cccc(O)c1
Details	solvation free energy, 298 K [kcal/mol]
in CCCCCC	-5.78
in CCCCCCC	-5.84
in CCCCCCCC	-5.85
in Cc1ccc(C)cc1	-8.35
in Cc1cccc(C)c1	-8.33
in Cc1ccccc1C	-8.33
in O	-11.4

c1ccc2c(c1)Sc1ccccc1S2
Details	solvation free energy, 298 K [kcal/mol]
in C1COCCO1	-12.8
in CC(C)CC(C)(C)C	-11.1
in CC(C)CCO	-11.3
in CC(C)CO	-11.1
in CC(C)O	-11
in CC(C)OC(C)C	-11.7
in CCC(C)O	-11.2
in CCCCC(CC)CO	-11.4
in CCCCCC	-11.4
in CCCCCCC	-11.3
in CCCCCCCC	-11.4
in CCCCCCCCCC	-11.3
in CCCCCCCCCCO	-11.6
in CCCCCCCCO	-11.6
in CCCCCCCO	-11.6
in CCCCCCO	-11.5
in CCCCCO	-11.5
in CCCCO	-11.4
in CCCO	-11.3
in CCOCC	-12.1
in CO	-10.9
in COC(C)(C)C	-12.1

CC(C)CCCO
Details	solvation free energy, 298 K [kcal/mol]
in CCCCCCCC	-4.84
in CCCCCCCCCC	-4.78

Nc1ncnc2nc[nH]c12
Details	solvation free energy, 298 K [kcal/mol]
in C=CCCCCCCC=C	-10.2
in C=CCCCCCCCCCCCCCC	-9.84
in O	-17.4

O=[N+]([O-])c1c(Cl)c(Cl)c(Cl)c(Cl)c1Cl
Details	solvation free energy, 298 K [kcal/mol]
in CCCCCCCCC=CCCCCCCCC(=O)OCC(COC(=O)CCCCCCCC=CCCCCCCCC)OC(=O)CCCCCCCC=CCCCCCCCC	-10.5

N#Cc1cccnc1
Details	solvation free energy, 298 K [kcal/mol]
in O	-6.75

CCCCCCCCCCCCO
Details	solvation free energy, 298 K [kcal/mol]
in CC(C)CC(C)(C)C	-8.62
in CCCCCC	-9.26
in CCCCCCCCC=CCCCCCCCC(=O)OCC(COC(=O)CCCCCCCC=CCCCCCCCC)OC(=O)CCCCCCCC=CCCCCCCCC	-10.2

CCCCCCCCCCCCCCCCCCCCCC
Details	solvation free energy, 298 K [kcal/mol]
in CC(=O)N(C)C	-15
in CC(C)(C)O	-13.3
in CCC(C)=O	-13.6
in CCCCCCCCC=CCCCCCCCC(=O)OCC(COC(=O)CCCCCCCC=CCCCCCCCC)OC(=O)CCCCCCCC=CCCCCCCCC	-13.4
in CCCCOC(C)=O	-14.1
in CCOC(C)=O	-13.7
in CN(C)C=O	-15
in COC(C)(C)C	-14.9
in COC(C)=O	-13
in O	4.87

CCCCC1CCCCC1
Details	solvation free energy, 298 K [kcal/mol]
in CCC(C)=O	-5.97
in CCO	-5.65
in CN1CCCC1=O	-5.09
in O	1.96
in O=Cc1ccco1	-4.97
in OCCO	-2.38
in OCCOCCO	-3.78

CC(=O)C(C)(C)C
Details	solvation free energy, 298 K [kcal/mol]
in CCCCCC	-4.34
in CCCCCCC	-4.3
in CCCCCCCC	-4.21
in CCCCCCCCCC	-4.15
in O	-3.11

Reference: the CombiSolv-Exp solvation set (Vermeire and Green 2021)
